From publication PMC6476888, “Design and synthesis of anticancer 1-hydroxynaphthalene-2-carboxanilides with a p53 independent mechanism of action” (Scientific Reports, 2019) come the findings set out here.

SMILES strings stand for the structures. Like-named read-outs stand apart in the source and are kept apart here.

For assay [1], the system named is HCT116^+/+. Put plainly: Antiproliferative assay (MTS, 72 h) on HCT116 wild type. It counts as cell-based, human. The following applies: MTS, 72 h incubation, read-out: Activity IC50 HCT116^+/+. As to the method:
(§1) All of the synthesized compounds were tested for their antiproliferative activity against human colon cancer (Table 1). We used both the wild-type and p53-negative cell lines (HCT116^+/+ and HCT116^−/−, respectively). Mutations in the TP53 gene are present in more than 50% of all cancers and often specifically correspond to a difficult therapy, resistance or a bad prognosis[60]–[63]. The active compounds were additionally tested for their cytotoxicity against normal human fibroblasts. We used 5-fluorouracil (5-FLU), doxorubicin (DOX) and CP-31398 as the standards. 5-FLU is one of the first antimetabolites that was dedicated for cancer treatment and is still used for a wide range of cancers including colon carcinoma. Doxorubicin is a DNA topoisomerase II poison with a high intercalating potency, which is able to induce apoptosis through the p53 pathway. Although DOX has been described as being ineffective in some p53 mutants, its level of activity against the p53 null lines is similar. CP-31398, on the other hand, is an experimental drug in the clinical phase and its mechanism of action is through the reactivation some of p53 mutants. Its activity against the p53 null cell lines is greatly diminished and is actually lower than its cytotoxicity.
(§2) The human colon cancer cell line HCT116 wild type was obtained from ATCC and the normal human fibroblast cell lines NHDF were obtained from PromoCell. The human colon cancer cell line HCT116 with a p53 deletion (p53^−/−) was kindly provided by Prof. M. Rusin from the Maria Sklodowska-Curie Memorial Cancer Centre and Institute of Oncology in Gliwice, Poland[89]. The cells were grown as monolayer cultures in Dulbecco’s modified Eagle’s medium with the antibiotic gentamicin (200 μL/100 mL medium) in 75 cm^2 flasks (Nunc). The DMEM for the HCT116 were supplemented with 12% heat-inactivated fetal bovine serum (Sigma-Aldrich, St. Louis, MO, USA) and for NHDF with 15% non-inactivated fetal bovine serum (Sigma Aldrich, St. Louis, MO, USA). The cells were cultured under standard conditions at 37 °C in a humidified atmosphere at 5% CO2.
(§3) The cells were seeded in 96-well plates (Nunc) at a density of 5,000 cells/well (HCT116) and 4,000 cells/well (NHDF) and incubated at 37 °C for 24 h. The assay was performed following a 72 h incubation with varying concentrations of the compounds that were being tested. Then, 20 µL of CellTiter 96® AQueous One Solution-MTS (Promega) was added to each well (with 100 µL DMEM without phenol red) and incubated for 1 h at 37 °C. The optical densities of the samples were analyzed at 490 nm using a Synergy 4 multi-plate reader (BioTek, Winooski, VT, USA). The results are expressed as the percentage of the control and were calculated as the inhibitory concentration (IC50) values (using a GraphPad Prism 7). The IC50 parameter was defined as the compound concentration that was necessary to reduce the proliferation of cells to 50% of the untreated control. Each individual compound was tested in triplicate in a single experiment with each experiment being repeated three or four times.

The test system of assay [2] is HCT116^−/−. Briefly: Antiproliferative assay (MTS, 72 h) on HCT116 with p53 deletion. The following applies: for IC50: MTS, 72 h incubation. It counts as cell-based, human. On the procedure:
as §1, §2, §3

For assay [3], the system named is NHDF. Briefly: Cytotoxicity (MTS, 72 h) against normal human fibroblasts. The assay is classed as cell-based. To be noted: for IC50: MTS, 72 h incubation. As to the method: as §1, §2, §3

On to `O=C(Nc1c(Br)cc(Br)cc1Br)c1ccc2ccccc2c1O` [6g], for which the IC50 in assay [1] and in assay [2] was greater than 25 µM throughout.

For `O=C(Nc1cc(C(F)(F)F)ccc1Br)c1ccc2ccccc2c1O` [6k], the IC50 came to 8.18 ± 1.72 µM in assay [1], 22.2 ± 0.83 µM in assay [3] and 7.15 ± 1.96 µM in assay [2].

Take `O=C(Nc1ccc(C(F)(F)F)cc1Cl)c1ccc2ccccc2c1O` [5o]: the IC50 in assay [1] is 4.92 ± 1.32 µM; in assay [3], 13.2 ± 1.97 µM; in assay [2], 5.41 ± 1.11 µM.

Turning to `O=C(Nc1c(Cl)cc(Cl)cc1Cl)c1ccc2ccccc2c1O` [5k], the IC50 is 19.4 ± 1.27 µM in assay [1], greater than 25 µM in assay [3] and greater than 25 µM in assay [2].

As to `O=C(Nc1cc(C(F)(F)F)ccc1C(F)(F)F)c1ccc2ccccc2c1O` [7e], the IC50 in assay [1] is 4.44 ± 1.16 µM; in assay [3], 22.9 ± 2.1 µM; in assay [2] it was 8.53 ± 3.37 µM.

As to `COc1ccc(NC(=O)c2ccc3ccccc3c2O)cc1` [2c], the IC50 in assay [1] and in assay [2] was greater than 25 µM throughout.

Take `Cc1ccc(C)c(NC(=O)c2ccc3ccccc3c2O)c1` [3d]: the IC50 was greater than 25 µM in assay [1] (Homo sapiens, HCT-116) and greater than 25 µM in assay [2] (Homo sapiens, HCT-116).

As for `O=C(Nc1ccc([N+](=O)[O-])cc1C(F)(F)F)c1ccc2ccccc2c1O` [7j], the results for the IC50 in assay [1], in assay [3] and in assay [2] were 2.04 ± 0.71 µM, 12.6 ± 1.32 µM and 4.74 ± 1.68 µM, respectively.

`O=C(Nc1cc(Cl)cc(Cl)c1)c1ccc2ccccc2c1O` [5i]: the values for the IC50 in assay [1], in assay [3] and in assay [2] were 2.32 ± 0.26 µM, 11.5 ± 0.88 µM and 2.89 ± 0.38 µM, respectively.

Take `O=C(Nc1cccc([N+](=O)[O-])c1)c1ccc2ccccc2c1O` [8b]: the IC50 in assay [1] was 6.82 ± 1.17 µM; in assay [3] it was greater than 25 µM; in assay [2] it was 3.1 ± 0.63 µM.

Take `COc1cc(NC(=O)c2ccc3ccccc3c2O)cc(OC)c1` [2e, N-(3,5-dimethoxyphenyl)−1-hydroxynaphthalene-2-carboxamide]: the IC50 in assay [1] (Homo sapiens, HCT-116) is greater than 25 µM; in assay [3] (Homo sapiens, NHDF), greater than 25 µM; in assay [2] (Homo sapiens, HCT-116), greater than 25 µM.

As to `O=C(Nc1cc(Cl)ccc1Cl)c1ccc2ccccc2c1O` [5f], the IC50 in assay [1] is 7.45 ± 0.85 µM; in assay [3], greater than 25 µM; in assay [2], 7.19 ± 1.15 µM.

As for `COc1cc(NC(=O)c2ccc3ccccc3c2O)cc(OC)c1OC` [2f], the IC50 was 6.54 ± 2.42 µM in assay [1], greater than 25 µM in assay [3] and 8.78 ± 2.13 µM in assay [2].

With `O=C(Nc1ccccc1C(F)(F)F)c1ccc2ccccc2c1O` [7a], the IC50 was greater than 25 µM in assay [1] and 21.4 ± 1.24 µM in assay [2].

For `O=C(Nc1ccc(Br)cc1)c1ccc2ccccc2c1O` [6c], the IC50 in assay [1] is 5.25 ± 0.67 µM; in assay [3], greater than 25 µM; in assay [2], 11 ± 0.97 µM.

`O=C(Nc1ccc(Cl)cc1Br)c1ccc2ccccc2c1O` [6h]: the IC50 in assay [1] is 9.54 ± 2.71 µM; in assay [3], greater than 25 µM; in assay [2], 13.2 ± 2.3 µM.

Consider `COc1ccccc1NC(=O)c1ccc2ccccc2c1O` [2a], for which the IC50 in assay [1] and in assay [2] was greater than 25 µM in each case.

Consider `O=C(Nc1cccc(Cl)c1Cl)c1ccc2ccccc2c1O` [5d], for which the IC50 in assay [1] is 4.66 ± 0.58 µM; in assay [3], greater than 25 µM; in assay [2] it was 8.25 ± 0.64 µM.

Consider `O=C(Nc1ccc([N+](=O)[O-])c(C(F)(F)F)c1)c1ccc2ccccc2c1O` [7p], for which the IC50 in assay [1] turned out to be 1.64 ± 0.47 µM; in assay [3], 9.68 ± 1.49 µM; in assay [2] it was 1.39 ± 0.44 µM.

In the case of `O=C(Nc1ccccc1)c1ccc2ccccc2c1O` [compound 1], the IC50 in assay [1] (Homo sapiens, HCT-116) is greater than 25 µM; in assay [2] (Homo sapiens, HCT-116), greater than 25 µM.

Regarding `O=C(Nc1ccc(Cl)c(Cl)c1)c1ccc2ccccc2c1O` [5h], the IC50 in assay [1] is 5.15 ± 0.5 µM; in assay [3] it was greater than 25 µM; in assay [2], 4.74 ± 0.82 µM. In addition, the “selectivity towards the p53 null cells (HCT116 p53^−/− vs wild type)” value in assay [2] was “not selective”.

As to `O=c1[nH]cc(F)c(=O)[nH]1` [5-FLU, 5-fluorouracil, reference compound], the IC50 in assay [1] (Homo sapiens, HCT-116) is 4.42 ± 0.7 µM; in assay [3] (Homo sapiens, NHDF), greater than 25 µM; in assay [2] (Homo sapiens, HCT-116), 4.69 ± 0.31 µM.

Regarding `O=C(Nc1cccc(Cl)c1)c1ccc2ccccc2c1O` [5b], the IC50 is 4.7 ± 0.4 µM in assay [1], greater than 25 µM in assay [3] and 1.78 ± 0.32 µM in assay [2].

Turning to `O=C(Nc1ccccc1Cl)c1ccc2ccccc2c1O` [5a], the results for the IC50 in assay [1], in assay [3] and in assay [2] were 16.5 ± 2.25 µM, greater than 25 µM and 22.4 ± 3.58 µM, respectively.

For `O=C(Nc1ccccc1[N+](=O)[O-])c1ccc2ccccc2c1O` [8a], the IC50 in assay [1] is 23.3 ± 3.77 µM; in assay [3], 22.7 ± 2.71 µM; in assay [2] it was greater than 25 µM.

Take `O=C(Nc1cc(C(F)(F)F)ccc1Cl)c1ccc2ccccc2c1O` [5r]: the IC50 in assay [1] (Homo sapiens, HCT-116) was determined as 2.48 ± 0.31 µM; in assay [3] (Homo sapiens, NHDF) it was 12.4 ± 1.14 µM; in assay [2] (Homo sapiens, HCT-116) it was 1.46 ± 0.21 µM.

Consider `O=C(Nc1ccc(Br)cc1Cl)c1ccc2ccccc2c1O` [5n], for which the IC50 in assay [1] was found to be 2.33 ± 0.95 µM; in assay [3], 23.4 ± 0.86 µM; in assay [2], 9.79 ± 1.95 µM.

Turning to `O=C(Nc1cc(Br)ccc1Cl)c1ccc2ccccc2c1O` [5q], the IC50 in assay [1] is 4.18 ± 1.49 µM; in assay [3], greater than 25 µM; in assay [2], 5.4 ± 2.04 µM.

For `O=C(Nc1c(Br)cccc1Br)c1ccc2ccccc2c1O` [6f], the IC50 in assay [1] and in assay [2] was greater than 25 µM throughout.

On to `O=C(Nc1ccc(C(F)(F)F)c(F)c1)c1ccc2ccccc2c1O` [4w], for which the IC50 worked out at 3.25 ± 0.94 µM in assay [1] (Homo sapiens, HCT-116); 22.8 ± 2.69 µM in assay [3] (Homo sapiens, NHDF); 4.82 ± 1.46 µM in assay [2] (Homo sapiens, HCT-116).

Regarding `O=C(Nc1c(F)c(F)c(Br)c(F)c1F)c1ccc2ccccc2c1O` [4y], the IC50 in assay [1] was 2.41 ± 0.69 µM; in assay [3], 7.87 ± 1.37 µM; in assay [2] it was 5.68 ± 1.37 µM.

Take `O=C(Nc1ccc(Br)cc1Br)c1ccc2ccccc2c1O` [6d]: the IC50 is 4.56 ± 0.43 µM in assay [1], greater than 25 µM in assay [3] and 4.61 ± 0.72 µM in assay [2].

In the case of `O=C(Nc1ccc(C(F)(F)F)cc1[N+](=O)[O-])c1ccc2ccccc2c1O` [8d], the IC50 in assay [1] and in assay [2] was greater than 25 µM each time.

On to `O=C(Nc1c(Cl)cccc1Cl)c1ccc2ccccc2c1O` [5g], for which the IC50 in assay [1] and in assay [2] was greater than 25 µM in each case.

Consider `O=C(Nc1cc(Cl)c(Cl)cc1Cl)c1ccc2ccccc2c1O` [5j], for which the IC50 in assay [1] turned out to be 3 ± 0.24 µM; in assay [3], 20.2 ± 0.79 µM; in assay [2], 6.21 ± 0.66 µM.

As for `O=C(Nc1ccc(C(F)(F)F)cc1)c1ccc2ccccc2c1O` [7c], the IC50 stood at 4.31 ± 0.51 µM in assay [1], 16.6 ± 2.17 µM in assay [3] and 1.07 ± 0.26 µM in assay [2].

Consider `O=C(Nc1ccccc1F)c1ccc2ccccc2c1O` [4a], for which the IC50 in assay [1] and in assay [2] was greater than 25 µM in each case.

As for `COc1ccc(C(F)(F)F)cc1NC(=O)c1ccc2ccccc2c1O` [2i], the IC50 in assay [1] (Homo sapiens, HCT-116) was greater than 25 µM; in assay [2] (Homo sapiens, HCT-116), greater than 25 µM.

Regarding `O=C(Nc1ccc([N+](=O)[O-])cc1)c1ccc2ccccc2c1O` [8c], the IC50 in assay [1] was found to be 0.41 ± 0.05 µM; in assay [3] it was 12.3 ± 1.49 µM; in assay [2], 0.69 ± 0.09 µM. Moreover, in assay [3] (cytotoxicity against the normal cell line vs HCT116), the selectivity index came to 30.

`O=C(Nc1ccc(C(F)(F)F)cc1C(F)(F)F)c1ccc2ccccc2c1O` [7d]: the IC50 in assay [1] was 11.3 ± 1.31 µM; in assay [3], greater than 25 µM; in assay [2] it was 8.69 ± 1.02 µM.

`O=C(Nc1ccc(Br)cc1C(F)(F)F)c1ccc2ccccc2c1O` [7i]: the IC50 in assay [1] and in assay [2] was greater than 25 µM each time.

Regarding `O=C(Nc1ccc(Cl)cc1C(F)(F)F)c1ccc2ccccc2c1O` [7h], the IC50 in assay [1] and in assay [2] was greater than 25 µM throughout.

`Cc1cccc(C)c1NC(=O)c1ccc2ccccc2c1O` [3e]: the IC50 in assay [1] (Homo sapiens, HCT-116) is greater than 25 µM; in assay [2] (Homo sapiens, HCT-116) it was greater than 25 µM.

Consider `Cc1cccc(NC(=O)c2ccc3ccccc3c2O)c1` [3b], for which the IC50 in assay [1] and in assay [2] was greater than 25 µM each time.

Regarding `Cc1ccccc1NC(=O)c1ccc2ccccc2c1O` [3a], the IC50 in assay [1] and in assay [2] was greater than 25 µM each time.

As for `Cc1ccc(NC(=O)c2ccc3ccccc3c2O)cc1` [3c], the IC50 in assay [1] and in assay [2] was greater than 25 µM in each case.
